Reference: patent US20220132758A1, “INTRODUCTION OF ACTIVE SUBSTANCES AND/OR DYE INTO PLANT TISSUE” (priority 2018, published 2022)

Tested on: bark beetle
Assay: Imidacloprid-impregnated beech shaped pieces shot into bark beetle-infested spruce trees
Assay type: in vivo
Settings: 7% imidacloprid solution; 8 pieces per tree; after 3 weeks; bark 10 to 50 cm above the shooting sites
Protocol: 24 shaped pieces according to FIG. 1c, Z-. X-. Y-direction 45×13×3 mm, angle α 90°, angle β 60°, made of beech wood (Fagus sylvatica) were impregnated with a neonicotinoid, a 7% imidacloprid solution (solvent dichloromethane) and then dried. The chips were shot 8 at a time into bark beetle-infested spruce trees using a gas cramping device (Alsafix AGRAFEUSE SANS FIL 12GASCR). After 3 weeks, the bark in the region 10 to 50 cm above the shooting sites was removed and the feeding tunnels exposed.

Structure (SMILES): O=[N+]([O-])NC1=NCCN1Cc1ccc(Cl)nc1 [imidacloprid]
- living larvae in feeding tunnels: No living larvae were found
